One assay deals with P. aeruginosa PAO1. The assay is described as follows: microbe, parasite or virus in culture. The settings on record: PAO1; for MIC: Pseudomonas aeruginosa, PAO1, 18 h, read-out: MICa: the MIC of antibiotics, S3 Table. As to the method: (§1) The MIC tests were performed in triplicate using broth microdilution in accordance with Clinical and Laboratory Standards Institute (CLSI) recommendations (http://iacld.ir/DL/public/CLSI-2018-M100-S28.pdf). Briefly, drugs were two-fold diluted in MHB and mixed with an equal volume of bacterial suspensions containing approximately 1 × 10^6 CFU/mL in 96-well microliter plate. After 18 h incubation at 37 °C, the MIC values were defined as the lowest concentrations of antibiotics with no visible growth of bacteria. […] Otherwise, 1/4 MIC of the peptide was used in the combination. […] If needed, membrane compounds PG, PE, PC, CL or LPS, or membrane stabilizers MgCl2 or CaCl2, or efflux pumps inhibitor PAβN were added to the broth medium to clarify the effect of other substances on the synergy between peptide and antibiotics. All the tests were performed in triplicate.
The fractional inhibitory concentration (FIC) indices were calculated using the previously described formula FICI = FICa + FICb = MICac/MICa + MICbc/MICb. The FICI was interpreted according to EUCAST [65] as follows: synergistic, FICI≤0.5; additive, 0.5<FICI≤1; indifferent, 1<FICI<2; antagonistic, FICI ≥2. For the FICI calculations, twice the highest concentration tested was used in the cases where the MIC was not reached.

The subject of assay [1] is clinical P. aeruginosa isolates. Briefly: microbe, parasite or virus in culture. The settings on record: Pseudomonas aeruginosa, 18 h, antibiotic alone. The procedure: The bacterial strains, primers and plasmids used in this study are listed in S5 Table. […] Bacteria were cultured in LB medium or cation-adjusted Muller-Hinton broth (CA-MHB) at 37 °C with agitation at 220 rpm. All the antibiotics and chemical compounds used in this study were purchased from Sigma-Aldrich.
as §1

Setting [2] is: S3 Table, antibiotic + 4 μM D-11.
[3] abbreviates: read-out: Antibiotic sensibility (MIC) of clinical P. aeruginosa isolate AUMC-Pa-1, strain AUMC-Pa-1.
[4] abbreviates: read-out: Antibiotic sensibility (MIC) of clinical P. aeruginosa isolate AUMC-Pa-2, strain AUMC-Pa-2.
Setting [5] is: read-out: Antibiotic sensibility (MIC) of clinical P. aeruginosa isolate AUMC-Pa-3, strain AUMC-Pa-3.
Setting [6] is: read-out: Antibiotic sensibility (MIC) of clinical P. aeruginosa isolate AUMC-Pa-4, strain AUMC-Pa-4.
The mark [7] stands for this setting: read-out: Antibiotic sensibility (MIC) of clinical P. aeruginosa isolate AUMC-Pa-5, strain AUMC-Pa-5.
The mark [8] stands for this setting: read-out: Antibiotic sensibility (MIC) of clinical P. aeruginosa isolate AUMC-Pa-6, strain AUMC-Pa-6.
The mark [9] stands for this setting: read-out: Antibiotic sensibility (MIC) of clinical P. aeruginosa isolate HM-214, strain HM-214.
[10] abbreviates: read-out: Antibiotic sensibility (MIC) of clinical P. aeruginosa isolate NR-31040, strain NR-31040.
The mark [11] stands for this setting: read-out: Antibiotic sensibility (MIC) of clinical P. aeruginosa isolate NR-31041, strain NR-31041.
Setting [12] is: peptide + azithromycin, twice the highest concentration used where MIC not reached.
The mark [13] stands for this setting: peptide alone, broth microdilution in MHB, 18 h, 37 °C, triplicate.

Values joined by “and” are separate entries in the source; they are usually repeats but may differ in a detail not shown here. Equal values may be shown once. Read-outs that look alike come from different tables or passages of the source. No end group written: not given here.

In the case of `NCC[C@H](O)C(=O)N[C@@H]1C[C@H](N)[C@@H](O[C@H]2O[C@H](CN)[C@@H](O)[C@H](O)[C@H]2O)[C@H](O)[C@H]1O[C@H]1O[C@H](CO)[C@@H](O)[C@H](N)[C@H]1O` [Amikacin], the FICI with P. aeruginosa PAO1 (S3 Table, antibiotic + 2 μM D-11) is given as 1.063; in the assay on P. aeruginosa PAO1 (setting [2]), 2.125. Further, the “MICac: the MIC for the antibiotic in the combination” value (“MICac: the MIC for the antibiotic” below) in the assay on P. aeruginosa PAO1 (S3 Table, with 2 μM D-11) was 1/1 μM; with P. aeruginosa PAO1 (S3 Table, with 4 μM D-11), 2 µM. Also, the “MICa: the MIC of antibiotics” value with P. aeruginosa PAO1 (S3 Table, antibiotic alone) is 1/1 μM and 1 μM. Moreover, the MIC in assay [1] (setting [3]) was determined as 1 µM; in assay [1] (setting [4]) it was 0.25 µM; in assay [1] (setting [5]), 0.0625 µM; in assay [1] (setting [6]), 1 µM; in assay [1] (setting [7]), 1 µM; in assay [1] (setting [8]), 2 µM. Further, the MIC was 1 µM in assay [1] (setting [9]), 4 µM in assay [1] (setting [10]) and 2 µM in assay [1] (setting [11]).

With `CC1(C)S[C@@H]2[C@H](NC(=O)[C@H](N)c3ccc(O)cc3)C(=O)N2[C@H]1C(=O)O` [Amoxicin, Amoxicillin], the MIC (in the assay with P. aeruginosa PAO1 (antibiotic alone); in assay [1] (setting [3]); in assay [1] (setting [4]); in assay [1] (setting [5]); in assay [1] (setting [6]); in assay [1] (setting [7])) was > 128 µM in each case. In addition, the MIC in assay [1] (setting [8]), in assay [1] (setting [9]), in assay [1] (setting [10]) and in assay [1] (setting [11]) was > 128 µM throughout. The FICI in the assay on P. aeruginosa PAO1 (setting [2]) worked out at 1.125. For the same compound, the “MICac: the MIC for the antibiotic” value is on record as >128/>128 μM with P. aeruginosa PAO1 (S3 Table, with 2 μM D-11) and >128/>128 μM in the assay with P. aeruginosa PAO1 (S3 Table, with 4 μM D-11).

In the case of `CC1(C)S[C@@H]2[C@H](NC(=O)[C@H](N)c3ccccc3)C(=O)N2[C@H]1C(=O)O` [Ampicillin], the MIC (with P. aeruginosa PAO1 (antibiotic alone); in assay [1] (setting [3]); in assay [1] (setting [4]); in assay [1] (setting [5]); in assay [1] (setting [6]); in assay [1] (setting [7])) was > 128 µM throughout. The MIC in assay [1] (setting [8]), in assay [1] (setting [9]), in assay [1] (setting [10]) and in assay [1] (setting [11]) was > 128 µM in each case. Besides, in the assay on P. aeruginosa PAO1 (setting [2]), the FICI is 1.125. Moreover, the “MICac: the MIC for the antibiotic” value with P. aeruginosa PAO1 (S3 Table, with 2 μM D-11) is reported as >128/>128 μM; in the assay with P. aeruginosa PAO1 (S3 Table, with 4 μM D-11), >128/>128 μM.

For RLLFRKIRRLKR [EC5], the FICI in the assay with P. aeruginosa PAO1 (peptide + Azithromycin, higher peptide concentration line) is recorded as <0.125; in the assay with P. aeruginosa PAO1 (peptide + Azithromycin, lower peptide concentration line), <0.281; in the assay with P. aeruginosa PAO1 (peptide + Clarithromycin, higher peptide concentration line), <0.313; with P. aeruginosa PAO1 (peptide + Clarithromycin, lower peptide concentration line) it was <0.281; in the assay with P. aeruginosa PAO1 (peptide + Erythromycin, higher peptide concentration line), <0.313; with P. aeruginosa PAO1 (peptide + Erythromycin, lower peptide concentration line), <0.281. The FICI is 1.063 in the assay on P. aeruginosa PAO1 (peptide + Spiramycin, higher peptide concentration line); 1.031 in the assay on P. aeruginosa PAO1 (peptide + Spiramycin, lower peptide concentration line); <0.313 with P. aeruginosa PAO1 (peptide + Telithromycin, higher peptide concentration line); <0.531 in the assay with P. aeruginosa PAO1 (peptide + Telithromycin, lower peptide concentration line); 0.188 in the assay on P. aeruginosa PAO1 (setting [12]). Further, the “MICb: the MIC of the peptide” value with P. aeruginosa PAO1 (S1 Table, peptide alone) is > 128 µM; in the assay with P. aeruginosa PAO1 (setting [13]), > 32 µM. Moreover, the “MIC of the peptide” value in the assay with P. aeruginosa PAO1 (peptide alone) is ≥ 32 µM.

For the compound RRLFRRILRWL-NH2 [RW-BP100], the FICI with P. aeruginosa PAO1 (setting [12]) is 1.250. For the same compound, the “MICb: the MIC of the peptide” value in the assay on P. aeruginosa PAO1 (setting [13]) came out at 8 µM.

In the case of “VDKGSYLPRPTPPRPIYNRN-NH2 [Pyrrhocoricin]”, in the assay on P. aeruginosa PAO1 (setting [12]), the FICI stood at 1.125. In addition, in the assay on P. aeruginosa PAO1 (setting [13]), the “MICb: the MIC of the peptide” value is > 32 µM.

Turning to VDKPPYLPRPRPPRRIYNR-NH2 [Oncocin], the FICI in the assay with P. aeruginosa PAO1 (setting [12]) amounted to 1.125. In addition, the “MICb: the MIC of the peptide” value in the assay with P. aeruginosa PAO1 (setting [13]) was > 32 µM.

(Values after PMC8445441, “Elucidating the mechanism by which synthetic helper peptides sensitize Pseudomonas aeruginosa to multiple antibiotics” (PLoS Pathogens, 2021).)
